These results are taken from patent US10138240B2, “Crystal of 5-hydroxy-4-(trifluoromethyl)pyrazolopyridine derivative” (Daiichi Sankyo Company, Limited, priority 2015, dated 2018).

In test [1] the target is LCAT (Homo sapiens (Human), UniProt P04180). As to the kind of experiment: LCAT activity measurement (in vitro), HDL3 fraction from human plasma as enzyme source and acceptor. The format is biochemical. The conditions noted are these: HDL3 1 mg/mL from plasma of a healthy person, [14C]cholesterol, 37° C., approximately 16 hours; read-out: EC50 of LCAT activation. As to the method: A fraction composed of HDL3 (1.125<specific gravity <1.210 g/mL) was obtained from the plasma of a healthy person by density gradient centrifugation. The obtained fraction was dialyzed against phosphate-buffered saline (pH 7.4) and used as an enzyme source and an acceptor for LCAT. Each test drug was prepared by dissolution in dimethyl sulfoxide. [^14C]Cholesterol containing DTNB (Ellman's reagent, final concentration: 0.5 mM), mercaptoethanol (final concentration: 12.5 mM), and 0.6% bovine serum albumin was added to phosphate-buffered saline (pH 7.4) containing 1 mg/mL HDL3, and the test drug was further added thereto at varying concentrations to adjust the whole amount to 80 μL. This mixture was incubated at 37° C. for approximately 16 hours. Then, a mixed solution of hexane and isopropanol (mixing ratio=3:2) was added thereto to stop the reaction. After stirring, the hexane layer was collected, and this layer was evaporated to dryness. […] The radioactivity of a portion corresponding to cholesterol oleate was measured using an imaging analyzer BAS-2500 (manufactured by Fujifilm Corp.). […] The EC50 value of LCAT activation was calculated according to the expression given below relative to the LCAT activity in the sample non-supplemented with the test drug. […]
Chain of LCAT (P04180 25-440): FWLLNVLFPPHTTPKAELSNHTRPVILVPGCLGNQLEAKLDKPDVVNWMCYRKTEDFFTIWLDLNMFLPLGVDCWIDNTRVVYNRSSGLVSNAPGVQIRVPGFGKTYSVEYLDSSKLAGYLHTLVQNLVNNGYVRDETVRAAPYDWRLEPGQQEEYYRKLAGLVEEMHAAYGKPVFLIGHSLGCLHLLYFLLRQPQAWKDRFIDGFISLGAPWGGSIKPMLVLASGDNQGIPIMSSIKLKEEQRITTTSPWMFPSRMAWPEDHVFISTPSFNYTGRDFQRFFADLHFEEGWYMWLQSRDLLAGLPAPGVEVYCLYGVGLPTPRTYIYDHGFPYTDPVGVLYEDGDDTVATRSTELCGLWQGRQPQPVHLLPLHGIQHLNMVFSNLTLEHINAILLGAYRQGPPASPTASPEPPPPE

The test system of test [2] is cynomolgus monkey. As to the kind of experiment: Drug efficacy test in cynomolgus monkeys (plasma HDL cholesterol). The class given is in vivo. The conditions noted are these: oral, single dose of 10 mg/kg, from AUC before administration and 24 hours after administration. As to the method: Each test drug was dissolved in a propylene glycol (Sigma-Aldrich Corp.)-Tween 80 (Sigma-Aldrich Corp.) mixed solution [4/1 (v/v)] or a 0.5% (w/v) methylcellulose aqueous solution, and the solution was orally administered to a cynomolgus monkey for 1 or 7 days. At 1 or 7 day of administration period, blood was collected before administration and after administration, and plasma was obtained. The content of cholesterol in the plasma was measured using a commercially available assay kit (Cholesterol-E Wako, Wako Pure Chemical Industries, Ltd.). The lipoprotein profile was analyzed by HPLC (column: LipopropakXL, manufactured by Tosoh Corp.). The contents of HDL cholesterol and non-HDL cholesterol were calculated according to the following calculation expression: Content of HDL cholesterol=Content of cholesterol in the plasma×(Peak area of HDL cholesterol/Total sum of peaks) Content of non-HDL cholesterol=Content of cholesterol in the plasma×(Peak area of non-HDL cholesterol/Total sum of peaks)
The rate (%) of increase in HDL level after the administration of a single dose of 10 mg/kg compared with before administration was determined from the AUC before administration and 24 hours after administration.

On to `O=C1Nc2[nH]nc(C3CCN(c4cnc(C(F)(F)F)cn4)CC3)c2C(O)(C(F)(F)F)C1O` (single isomer, unassigned; (+)) [Example 1(4), (+)-4,5-Dihydroxy-4-(trifluoromethyl)-3-{1-[5-(trifluoromethyl)pyrazin-2-yl]piperidin-4-yl}-1,4,5,7-tetrahydro-6H-pyrazolo[3,4-b]pyridin-6-one], for which, in test [1], the EC50 (commonly the midpoint of the concentration-response curve) worked out at 4 nM. For the same molecule, the “Rate of increase in HDL level after administration of single dose” value in test [2] stood at 590%.
On to `O=C1Nc2[nH]nc(C3CCN(c4cnc(C(F)(F)F)nc4)CC3)c2[C@@H](C(F)(F)F)[C@H]1O` [Example 6(4), (+)-cis-5-Hydroxy-4-(trifluoromethyl)-3-{1-[2-(trifluoromethyl)pyrimidin-5-yl]piperidin-4-yl}-1,4,5,7-tetrahydro-6H-pyrazolo[3,4-b]pyridin-6-one], for which the 50% effective concentration (EC50) in test [1] came out at 18 nM. Besides, the “Rate of increase in HDL level after administration of single dose” value in test [2] is listed as 483%.
